Measurements: patent publication US5776742A, “Aldehyde dehydrogenase enzyme” (Roche Vitamins Inc., priority 1996, dated 1998)
Where “and” joins values, the source holds several entries; their conditions need not be identical. Identical values can stand only once. Entries after “also recorded” stand apart in the source; their conditions may differ. Like-named read-outs stand apart in the source and are kept apart here.

Tests used:
[1] = target: T1, aldehyde dehydrogenase (ADH) (Ketogulonicigenium vulgare, UniProt F9Y7W8); test: Electron acceptor suitability for L-sorbosone oxidation; type: biochemical, Gluconobacter oxydans DSM 4025 (FERM BP-3812); settings: oxidation of L-sorbosone to 2-keto-L-gulonic acid
T1 sequence (F9Y7W8 1-429): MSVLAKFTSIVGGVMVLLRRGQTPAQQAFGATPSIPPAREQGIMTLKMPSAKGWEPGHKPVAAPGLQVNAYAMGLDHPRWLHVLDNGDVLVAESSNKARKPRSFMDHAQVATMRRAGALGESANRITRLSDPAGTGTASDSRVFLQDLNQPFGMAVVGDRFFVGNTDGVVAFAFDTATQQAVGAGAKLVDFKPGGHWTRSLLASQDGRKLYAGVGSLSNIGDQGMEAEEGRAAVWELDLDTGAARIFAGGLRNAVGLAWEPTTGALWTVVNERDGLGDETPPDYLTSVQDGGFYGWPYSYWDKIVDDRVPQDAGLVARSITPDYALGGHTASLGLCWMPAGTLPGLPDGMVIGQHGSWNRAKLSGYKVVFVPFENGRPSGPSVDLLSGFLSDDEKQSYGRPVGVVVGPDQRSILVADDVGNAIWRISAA

[2] = target: T1, aldehyde dehydrogenase (ADH); test: Substrate specificity of the ADH; settings: for activity at 100000 µM: read-out: Relative activity (%)
[3] = target: T1, aldehyde dehydrogenase (ADH); test: Effects of metal ions, enzyme inhibitors and PQQ on the activity of ADH; type: biochemical, Gluconobacter oxydans DSM 4025 (FERM BP-3812); settings: for inhibition at 1870 µM: read-out: inhibition of the activity
[4] = read-out: Relative activity (%)
[5] = compound 0.950 mM, None = 100, read-out: Relative activity (%)
[6] = compound 1.870 mM, None = 100, read-out: Relative activity (%)

## O=C1C(Cl)=CC(=Nc2ccc(O)cc2)C=C1Cl
[1]
  suitability as electron acceptor (in words): oxidizes L-sorbosone to 2-keto-L-gulonic acid in the presence of electron acceptors

## O=CC(O)CO (racemic) [D,L-Glyceraldehyde]
[2]
  activity at 100000 µM: 789%
[2]; substrate vs L-sorbosone
  relative activity, times higher than that for L-sorbosone: about 8 times

## O.O.O.O.O=[N+]([O-])[O-].O=[N+]([O-])[O-].[Ca+2] [Ca(NO3)2.4H2 O]
[3]; metal 0.0387 mM, None = 100
  Relative activity (%): 294%
[3]; metal 0.19 mM, None = 100
  Relative activity (%): 450%

## [Ca+2].[Cl-].[Cl-] [CaCl2]
[3]; metal 0.0387 mM, None = 100
  Relative activity (%): 337%

## [Ca+2] [Ca^2+]
[3]
  effect on the enzyme activity (in words): Stimulator

## O.O.O.O.O.O.[Cl][Cu][Cl] [CuCl2.6H2 O]
[3]; metal 0.0387 mM, None = 100
  Relative activity (%): 100%
[3]; metal 0.19 mM, None = 100
  Relative activity (%): 50%
[3]; metal 0.374 mM, None = 100
  Relative activity (%): 0%

## O.O.O.O.O.O.O.O=S(=O)([O-])[O-].[Cu+2] [CuSO4.7H2 O]
[3]; metal 0.19 mM, None = 100
  Relative activity (%): 100%
[3]; metal 0.374 mM, None = 100
  Relative activity (%): 61.9%

## [Cu+2] [Cu^2+]
[3]
  effect on the enzyme activity (in words): inhibited; also recorded: Inhibition

## O=C(CO)[C@@H](O)[C@H](O)[C@H](O)CO [D-Fructose]
[2]
  activity at 100000 µM: 0%

## O=C[C@H](O)[C@@H](O)[C@H](O)[C@H](O)CO [D-Glucose]
[2]
  relative activity, times higher than that for L-sorbosone: ~2 times
  activity at 100000 µM: 189%

## O=CC(=O)[C@@H](O)[C@H](O)[C@H](O)CO [D-Glucosone]
[2]
  activity at 100000 µM: 77.8%

## O=C[C@@H](O)[C@@H](O)[C@H](O)[C@H](O)CO [D-Mannose]
[2]
  activity at 100000 µM: 62.2%

## O=C[C@H](O)[C@H](O)[C@H](O)CO [D-Ribose]
[2]
  activity at 100000 µM: 33.3%

## OC[C@@H](O)[C@@H](O)[C@H](O)[C@@H](O)CO [D-Sorbitol]
[2]
  activity at 100000 µM: 0%

## O=C(O)CN(CCN(CC(=O)O)CC(=O)O)CC(=O)O [EDTA, ethylenediamine tetraacetic acid, reference compound]
[3]
  effect on the enzyme activity (in words): strongly inhibited; also recorded: Inhibition
[3]; [4]
  activity at 194 µM: 3.8%
  activity at 480 µM: 2.6%
  activity at 980 µM: 1.6%

## O.O=S(=O)([O-])[O-].O=S(=O)([O-])[O-].O=S(=O)([O-])[O-].[Fe+3].[Fe+3] [Fe2 (SO4)3.nH2 O]
[3]; metal 0.0387 mM, None = 100
  Relative activity (%): 100%
[3]; metal 0.228 mM, None = 100
  Relative activity (%): 64.0%
[3]; metal 0.374 mM, None = 100
  Relative activity (%): 44.9%
[3]; metal 0.41 mM, None = 100
  Relative activity (%): 30.4%

## [Fe+3] [Fe^3+]
[3]
  effect on the enzyme activity (in words): inhibited

## O=C(CO)[C@@H](O)[C@H](O)[C@@H](O)CO [L-Sorbose]
[2]
  activity at 100000 µM: 0%

## O=CC(=O)[C@@H](O)[C@H](O)[C@@H](O)CO [L-Sorbosone]
[2]
  activity at 100000 µM: 100%

## O.O.O.O.O.O.O.O=S(=O)([O-])[O-].[Mg+2] [MgSO4.7H2 O]
[3]; metal 0.19 mM, None = 100
  Relative activity (%): 79.3%
[3]; metal 0.374 mM, None = 100
  Relative activity (%): 39.9%

## [Mg+2] [Mg^2+]
[3]
  effect on the enzyme activity (in words): inhibited

## [Na+].[Na+].[O]=[Mo](=[O])([O-])[O-] [Mo^6+]
[3]
  effect on the enzyme activity (in words): inhibited

## O=C(O)CI [Monoiodoacetate, reference compound]
[3]; [4]
  activity at 950 µM: 93.7%
  activity at 1870 µM: 87.3%
[3]
  inhibition at 1870 µM: 13%

## CCN1C(=O)C=CC1=O [N-Ethylmaleimide, reference compound]
[3]; 1.87 mM
  inhibition at 1870 µM: 24%
[3]; [5]
  activity at 950 µM: 94.1%
[3]; [6]
  activity at 1870 µM: 76.5%

## O.O.O.O.O.O.O.O=[As]([O-])([O-])O.[Na+].[Na+] [Na2 HAsO4.7H2 O, reference compound]
[3]; compound 0.950 mM, None = 100
  Relative activity (%): 100%
[3]; compound 1.870 mM, None = 100
  Relative activity (%): 107.1%

## O.O.[Na+].[Na+].[O]=[Mo](=[O])([O-])[O-] [Na2 MoO4.2H2 O]
[3]; metal 0.19 mM, None = 100
  Relative activity (%): 69.7%
[3]; metal 0.374 mM, None = 100
  Relative activity (%): 42.1%

## O.O.O.O.O.O.O=S(=O)([O-])[O-].[Ni+2] [NiSO4.6H2 O]
[3]; metal 0.375 mM, None = 100
  Relative activity (%): 17.6%

## [Ni+2] [Ni^2+]
[3]
  effect on the enzyme activity (in words): inhibited; also recorded: Inhibition

## O=C(O)c1cc(C(=O)O)c2c(n1)C(=O)C(=O)c1cc(C(=O)O)[nH]c1-2 [PQQ, pyrroloquinoline quinone, reference compound]
[3]
  effect on the enzyme activity (in words): Stimulator
[3]; 0.01 mM, read-out: stimulation of the activity
  activation at 10 µM: ~50%
[3]; compound 0.01 mM, None = 100, read-out: Relative activity (%)
  activity at 10 µM: 148%

## C=C[C@H]1C[N@@]2CC[C@H]1C[C@H]2[C@H](O)c1ccnc2ccc(OC)cc12 [Quinine, reference compound]
[3]; [5]
  activity at 950 µM: 118%
[3]; [6]
  activity at 1870 µM: 112%

## [F-].[Na+] [Sodium fluoride, reference compound]
[3]
  Relative activity (%): 100% and 105.8%

## O=C(O)CF [Sodium fluoroacetate, reference compound]
[3]; [5]
  activity at 950 µM: 118%
[3]; [6]
  activity at 1870 µM: 127%

## [Cl][Ti]([Cl])([Cl])[Cl] [TiCl4]
[3]; metal 0.19 mM, None = 100
  Relative activity (%): 100%
[3]; metal 0.374 mM, None = 100
  Relative activity (%): 80%

## [Ti+4] [Ti^4+]
[3]
  effect on the enzyme activity (in words): inhibited

## [Cl-].[Cl-].[Zn+2] [ZnCl2]
[3]; metal 0.19 mM, None = 100
  Relative activity (%): 36.1%
[3]; metal 0.374 mM, None = 100
  Relative activity (%): 21.1%

## O.O.O.O.O.O.O.O=S(=O)([O-])[O-].[Zn+2] [ZnSO4.7H2 O]
[3]; metal 0.374 mM, None = 100
  Relative activity (%): 32.6%

## [Zn+2] [Zn^2+]
[3]
  effect on the enzyme activity (in words): inhibited; also recorded: Inhibition

## CC(C)O [iso-Propanol]
[2]
  activity at 100000 µM: 0%

## CCCO [n-Propanol]
[2]
  activity at 100000 µM: 0%

## NC(=O)c1ccc[n+]([C@@H]2O[C@H](COP(=O)([O-])OP(=O)(O)OC[C@H]3O[C@@H](n4cnc5c(N)ncnc54)[C@H](OP(=O)(O)O)[C@@H]3O)[C@@H](O)[C@H]2O)c1 [nicotine amide adenine dinucleotide phosphate]
[1]
  suitability as electron acceptor (in words): not suitable

## NC(=O)c1ccc[n+]([C@@H]2O[C@H](COP(=O)([O-])OP(=O)(O)OC[C@H]3O[C@@H](n4cnc5c(N)ncnc54)[C@H](O)[C@@H]3O)[C@@H](O)[C@H]2O)c1 [nicotine amide adenine dinucleotide]
[1]
  suitability as electron acceptor (in words): not suitable

## O=O [oxygen]
[1]
  suitability as electron acceptor (in words): does not work; also recorded: not suitable

## C[n+]1c2ccccc2nc2ccccc21 [phenazine methosulfate]
[1]
  suitability as electron acceptor (in words): oxidizes L-sorbosone to 2-keto-L-gulonic acid in the presence of electron acceptors

## cytochrome c
[1]
  suitability as electron acceptor (in words): oxidizes L-sorbosone to 2-keto-L-gulonic acid in the presence of electron acceptors
